# Reference: the supplement of paper PMC13380429
# ± gives the standard deviation of the averaged measurements.
# Key:
# Conditions in all cases: 72 h
# HepG2 [1] = experiment: relative viability EC50 (midpoint between 100% and the lowest measured viability); higher = less toxic
# Calu-3 [2] = experiment: as above
# U2OS [3] = experiment: as above
# Caco-2 [4] = experiment: as above
# Vero E6 [5] = experiment: as above
# HepG2 [6] = experiment: drug sensitivity score (DSS) for viability; higher = more toxic; extreme values may be limits of the assay
# Calu-3 [7] = experiment: as above
# U2OS [8] = experiment: as above
# Caco-2 [9] = experiment: as above
# Vero E6 [10] = experiment: as above
# HepG2 [11] = experiment: cell viability relative to DMSO; higher = less toxic
# Calu-3 [12] = experiment: as above
# U2OS [13] = experiment: as above
# Caco-2 [14] = experiment: as above
# Vero E6 [15] = experiment: as above
SMILES,relative viability EC50 (HepG2 [1]),relative viability EC50 (Calu-3 [2]),relative viability EC50 (U2OS [3]),relative viability EC50 (Caco-2 [4]),relative viability EC50 (Vero E6 [5]),drug sensitivity score (HepG2 [6]),drug sensitivity score (Calu-3 [7]),drug sensitivity score (U2OS [8]),drug sensitivity score (Caco-2 [9]),drug sensitivity score (Vero E6 [10]),cell viability (HepG2 [11]; 1 nM),cell viability (HepG2 [11]; 10 nM),cell viability (HepG2 [11]; 100 nM),cell viability (HepG2 [11]; 1000 nM),cell viability (HepG2 [11]; 10000 nM),cell viability (Calu-3 [12]; 1 nM),cell viability (Calu-3 [12]; 10 nM),cell viability (Calu-3 [12]; 100 nM),cell viability (Calu-3 [12]; 1000 nM),cell viability (Calu-3 [12]; 10000 nM),cell viability (U2OS [13]; 1 nM),cell viability (U2OS [13]; 10 nM),cell viability (U2OS [13]; 100 nM),cell viability (U2OS [13]; 1000 nM),cell viability (U2OS [13]; 10000 nM),cell viability (Caco-2 [14]; 1 nM),cell viability (Caco-2 [14]; 10 nM),cell viability (Caco-2 [14]; 100 nM),cell viability (Caco-2 [14]; 1000 nM),cell viability (Caco-2 [14]; 10000 nM),cell viability (Vero E6 [15]; 1 nM),cell viability (Vero E6 [15]; 10 nM),cell viability (Vero E6 [15]; 100 nM),cell viability (Vero E6 [15]; 1000 nM),cell viability (Vero E6 [15]; 10000 nM)
COc1ccc(CCNCC(O)COc2cccc(C)c2)cc1OC (stereo not given) [bevantolol],> 10 µM,> 10 µM,> 10 µM,> 10 µM,> 10 µM,0,0,0,0,0,90.1%,87.2%,99.7%,89.8%,92.1%,107%,103%,102%,113%,96%,101%,95.9%,101%,101%,99.8%,94.3%,111%,103%,90.3%,104%,98.5%,95.8%,94.7%,90.1%,98.7%
N=C(N)NC(=N)NCCc1ccccc1 [phenformin],> 10 µM,> 10 µM,> 10 µM,> 10 µM,> 10 µM,0.3,0,0,0.5,0,106%,101%,102%,98%,85.8%,90.2%,100%,96.5%,98.8%,102%,95.9%,97.6%,93.8%,98.8%,97.1%,86.7%,101%,93.7%,91.8%,81.5%,98.8%,95.3%,107%,98.4%,96.4%
CNC(=O)c1cnn(-c2nc(N)c3ncn([C@@H]4O[C@H](CO)[C@@H](O)[C@H]4O)c3n2)c1 [regadenoson],> 10 µM,> 10 µM,> 10 µM,> 10 µM,> 10 µM,0,0,0,0,0,102%,105%,102%,90.7%,117%,91.7%,104%,106%,102%,103%,95.9%,92.1%,102%,99%,104%,101%,97.4%,91.1%,94.3%,108%,101%,93.7%,86.2%,103%,111%
O=[N+]([O-])c1cc(O)c(O)c([N+](=O)[O-])c1 [OR-486],> 10 µM,> 10 µM,> 10 µM,> 10 µM,> 10 µM,0,0,0,0,0,101%,98.3%,98.3%,93.6%,96.7%,102%,100%,95.2%,94%,99.5%,98.2%,102%,96.5%,103%,98%,93.2%,103%,103%,97%,94.3%,97.6%,99%,102%,100%,97%
CC(=O)O[C@]1(C(C)=O)CC[C@H]2[C@@H]3C=C(C)C4=CC(=O)CC[C@@H]4[C@H]3CC[C@@]21C [nomegestrol-acetate],> 10 µM,> 10 µM,> 10 µM,> 10 µM,> 10 µM,0,0,0,0,0,103%,97.1%,102%,106%,110%,99%,94.1%,87.7%,106%,108%,99.8%,102%,102%,103%,101%,88.5%,97.3%,102%,91.6%,97.4%,100%,96.3%,99.3%,98.6%,111%
C[C@@H](C(=O)O)c1ccc(-c2ccccc2)c(F)c1 (racemic) [flurbiprofen-(+/-)],> 10 µM,> 10 µM,> 10 µM,> 10 µM,> 10 µM,0,0.0333 ± 0.058,0,0,0,94.95 ± 0.21%,101 ± 9.9%,94.9 ± 4%,101 ± 2.8%,100 ± 1.4%,92.6 ± 3.4%,98.7 ± 5.3%,93.3 ± 9.1%,96.3 ± 3.1%,98.3 ± 12%,101.1 ± 1%,100 ± 7.2%,99.4 ± 2.7%,99 ± 2.2%,96.4 ± 5%,98.7 ± 8%,95.2 ± 2.5%,95.5 ± 4%,96 ± 3.3%,96 ± 8.2%,100 ± 1.8%,100 ± 1.6%,97.15 ± 0.92%,95.7 ± 6.5%,97.2 ± 1.3%
CS(=O)(=O)c1cc(F)cc2c3c(n(Cc4ccc(Cl)cc4)c12)[C@@H](CC(=O)O)CC3 [laropiprant],> 10 µM,> 10 µM,> 10 µM,> 10 µM,> 10 µM,0,0,0,0,0,99%,94.2%,100%,98.6%,101%,101%,95.4%,90.3%,110%,94.6%,100%,101%,98.3%,106%,97.5%,95.4%,102%,91%,95.4%,88.5%,102%,99.6%,106%,98.2%,91.9%
